Test results reported in ChEMBL document CHEMBL1148579, “Influence of various central moieties on the hypolipidemic properties of long hydrocarbon chain diols and diacids” (J Med Chem, 2006).

Assays:
Rattus norvegicus [1] = assay: Activity against high density lipoprotein cholesterol level in obese female Zucker rat serum after 1 week at 100 mg/kg (percent change from pre-treatment); format: functional
Rattus norvegicus [2] = assay: Activity against non high density lipoprotein cholesterol level in obese female Zucker rat serum after 1 week at 100 mg/kg (percent change from pre-treatment); format: functional
Hepatocyte = assay: Inhibition of lipid synthesis in primary rat hepatocytes by incorporation radiolabeled acetate into cellular lipids; format: functional, cell-based, Sprague-Dawley
Rattus norvegicus [3] = assay: Activity against triglyceride level in obese female Zucker rat serum after 1 week at 100 mg/kg (percent change from pre-treatment); format: functional
Rattus norvegicus [4] = assay: Activity against high density lipoprotein cholesterol level in obese female Zucker rat serum after 2 weeks at 100 mg/kg (percent change from pre-treatment); format: functional
Rattus norvegicus [5] = assay: Activity against non high density lipoprotein cholesterol level in obese female Zucker rat serum after 2 weeks at 100 mg/kg (percent change from pre-treatment); format: functional
Rattus norvegicus [6] = assay: Activity against triglyceride level in obese female Zucker rat serum after 2 weeks at 100 mg/kg (percent change from pre-treatment); format: functional
Rattus norvegicus [7] = assay: Activity against non high density lipoprotein cholesterol level in obese female Zucker rat serum after 2 weeks at 80 mg/kg (percent change from pre-treatment); format: functional
Rattus norvegicus [8] = assay: Activity against triglyceride level in obese female Zucker rat serum after 1 week at 80 mg/kg (percent change from pre-treatment); format: functional
Rattus norvegicus [9] = assay: Activity against triglyceride level in obese female Zucker rat serum after 2 weeks at 80 mg/kg (percent change from pre-treatment); format: functional
Rattus norvegicus [10] = assay: Activity against high density lipoprotein cholesterol level in obese female Zucker rat serum after 1 week at 80 mg/kg (percent change from pre-treatment); format: functional
Rattus norvegicus [11] = assay: Activity against non high density lipoprotein cholesterol level in obese female Zucker rat serum after 1 week at 80 mg/kg (percent change from pre-treatment); format: functional
Rattus norvegicus [12] = assay: Activity against high density lipoprotein cholesterol level in obese female Zucker rat serum after 2 weeks at 80 mg/kg (percent change from pre-treatment); format: functional
Rattus norvegicus [13] = assay: Activity against triglyceride level in obese female Zucker rat serum after 1 week at 30 mg/kg (percent change from pre-treatment); format: functional
Rattus norvegicus [14] = assay: Activity against non high density lipoprotein cholesterol level in obese female Zucker rat serum after 2 weeks at 30 mg/kg (percent change from pre-treatment); format: functional
Rattus norvegicus [15] = assay: Activity against non high density lipoprotein cholesterol level in obese female Zucker rat serum after 1 week at 30 mg/kg (percent change from pre-treatment); format: functional
Rattus norvegicus [16] = assay: Activity against high density lipoprotein cholesterol level in obese female Zucker rat serum after 2 weeks at 30 mg/kg (percent change from pre-treatment); format: functional
Rattus norvegicus [17] = assay: Activity against triglyceride level in obese female Zucker rat serum after 2 weeks at 30 mg/kg (percent change from pre-treatment); format: functional
Rattus norvegicus [18] = assay: Activity against high density lipoprotein cholesterol level in obese female Zucker rat serum after 1 week at 30 mg/kg (percent change from pre-treatment); format: functional
Rattus norvegicus [19] = assay: Tolerability of compound upto 2000 mg/kg; format: organism-based; set-up: dose 2000 mg/kg; settings: in vivo
Rattus norvegicus [20] = assay: Activity against high density lipoprotein cholesterol level in obese female Zucker rat serum after 2 weeks at 53 mg/kg (percent change from pre-treatment); format: functional
Rattus norvegicus [21] = assay: Activity against non high density lipoprotein cholesterol level in obese female Zucker rat serum after 1 week at 53 mg/kg (percent change from pre-treatment); format: functional
Rattus norvegicus [22] = assay: Activity against high density lipoprotein cholesterol level in obese female Zucker rat serum after 1 week at 53 mg/kg (percent change from pre-treatment); format: functional
Rattus norvegicus [23] = assay: Activity against triglyceride level in obese female Zucker rat serum after 1 week at 53 mg/kg (percent change from pre-treatment); format: functional
Rattus norvegicus [24] = assay: Activity against non high density lipoprotein cholesterol level in obese female Zucker rat serum after 2 weeks at 53 mg/kg (percent change from pre-treatment); format: functional
Rattus norvegicus [25] = assay: Activity against triglyceride level in obese female Zucker rat serum after 2 weeks at 53 mg/kg (percent change from pre-treatment); format: functional
[26] = Rattus norvegicus, Sprague-Dawley, Hepatocyte, read-out: IC50

SMILES | Activity (Rattus norvegicus [1]) [%] | Activity (Rattus norvegicus [2]) [%] | IC50 (Hepatocyte; [26]) [µM] | Activity (Rattus norvegicus [3]) [%] | Activity (Rattus norvegicus [4]) [%] | Activity (Rattus norvegicus [5]) [%] | Activity (Rattus norvegicus [6]) [%] | other results
CC(C)(CO)CCCCNC(=O)NCCCCC(C)(C)CO | 66 | -33 | 3.4 | -42 | 92 | -5 | -31 | 
CC(C)(CO)CCCCS(=O)(=O)CCCCC(C)(C)CO | 15 | -46 | 8.9 | -34 | -13 | -34 | -19 | 
CC(C)(CO)CCCCC(O)CCCCC(C)(C)CO | 219 | -61 | 6.4 | -70 | 222 | -15 | -46 | 
CC(C)(CO)CCCCOP(=O)(O)OCCCCC(C)(C)CO |  |  |  |  |  |  |  | Activity (Rattus norvegicus [7]): -17%; IC50 (Hepatocyte; hepatocyte): Not Active; Activity (Rattus norvegicus [8]): -10%; Activity (Rattus norvegicus [9]): -13%; Activity (Rattus norvegicus [10]): 27%; Activity (Rattus norvegicus [11]): -29%; Activity (Rattus norvegicus [12]): 8%
CC(C)(CCCCCC(=O)CCCCCC(C)(C)C(=O)O)C(=O)O | 72 | -98 |  | -93 | 168 | -99 | -94 | 
CC(C)(CO)CCCC[S+]([O-])CCCCC(C)(C)CO | 127 | 56 |  | -37 | 233 | 64 | -35 | IC50 (Hepatocyte; hepatocyte): Not Active
CC(C)(CO)CCCCNC(=O)OCCCCC(C)(C)CO | 60 | 10 | 0.8 | -52 | 65 | 84 | -4 | 
CC(C)(CO)CCCCN(O)CCCCC(C)(C)CO |  |  | 63 |  |  |  |  | Activity (Rattus norvegicus [13]): -26%; Activity (Rattus norvegicus [14]): -5%; Activity (Rattus norvegicus [15]): -40%; Activity (Rattus norvegicus [16]): 19%; Activity (Rattus norvegicus [17]): 13%; Activity (Rattus norvegicus [18]): 27%
CC(C)(CO)CCCSCCCC(C)(C)CO |  |  | 15 |  |  |  |  | Activity (Rattus norvegicus [13]): -51%; Activity (Rattus norvegicus [14]): -14%; Activity (Rattus norvegicus [15]): -40%; Activity (Rattus norvegicus [16]): 40%; Activity (Rattus norvegicus [17]): -34%; Activity (Rattus norvegicus [18]): 54%
CC(CO)(CCCC[S+]([O-])CCCCC(C)(CO)c1ccccc1)c1ccccc1 (stereo not given) |  |  | 81 |  |  |  |  | 
CC(CO)(CCC[S+]([O-])CCCC(C)(CO)c1ccccc1)c1ccccc1 (stereo not given) |  |  |  |  |  |  |  | Activity (Rattus norvegicus [7]): 81%; IC50 (Hepatocyte; hepatocyte): Not Active; Activity (Rattus norvegicus [8]): 18%; Activity (Rattus norvegicus [9]): 41%; Activity (Rattus norvegicus [10]): -23%; Activity (Rattus norvegicus [11]): 68%; Activity (Rattus norvegicus [12]): -36%
CC(C)(CO)CCCCOC(=O)CCCCC(C)(C)CO | 18 | -25 | 13 | -20 | 23 | -5 | 7 | 
CC(C)(CO)CCCCOCCCCC(C)(C)CO | 234 | -38 | 10.7 | -77 | 366 | 11 | -71 | Activity (Rattus norvegicus [19]): Active
CC(C)(CO)CCCCNC(=O)CCCCC(C)(C)CO |  |  |  |  |  |  |  | Activity (Rattus norvegicus [13]): -20%; Activity (Rattus norvegicus [14]): -7%; IC50 (Hepatocyte; hepatocyte): Not Active; Activity (Rattus norvegicus [15]): -21%; Activity (Rattus norvegicus [16]): 20%; Activity (Rattus norvegicus [17]): -10%; Activity (Rattus norvegicus [18]): 2%
CC(C)(CO)CCC[S+]([O-])CCCC(C)(C)CO | 54 | 40 |  | -36 | 93 | 12 | -5 | IC50 (Hepatocyte; hepatocyte): Not Active
CC(C)(CO)CCCCNCCCCC(C)(C)CO |  |  |  |  |  |  |  | IC50 (Hepatocyte; hepatocyte): Not Active; Activity (Rattus norvegicus [20]): 16%; Activity (Rattus norvegicus [21]): 78%; Activity (Rattus norvegicus [22]): -23%; Activity (Rattus norvegicus [23]): -24%; Activity (Rattus norvegicus [24]): -10%; Activity (Rattus norvegicus [25]): -32%
CC(CO)(CCCCSCCCCC(C)(CO)c1ccccc1)c1ccccc1 (stereo not given) |  |  | 64 |  |  |  |  | 
CC(C)(CO)CCCCC(CO)CCCCC(C)(C)CO | 2 | -43 | 15 | -52 | -2 | -12 | -23 | 
CC(CCCCSCCCCC(C)(C(=O)O)c1ccccc1)(C(=O)O)c1ccccc1 (stereo not given) |  |  | 26 |  |  |  |  | 
CC(=O)C(CCCCC(C)(C)CO)CCCCC(C)(C)CO |  |  | 46 |  |  |  |  | Activity (Rattus norvegicus [13]): -6%; Activity (Rattus norvegicus [14]): 52%; Activity (Rattus norvegicus [15]): 15%; Activity (Rattus norvegicus [16]): -19%; Activity (Rattus norvegicus [17]): 22%; Activity (Rattus norvegicus [18]): -14%
CC(CO)(CCCSCCCC(C)(CO)c1ccccc1)c1ccccc1 (stereo not given) | 9 | -26 | 41 | -18 | 2 | 8 | 1 | 
CC(C)(CO)CCCCCCCCCC(C)(C)CO | 189 | -67 |  | -83 | 137 | -75 | -82 | 
